The record followed here is publication PMC6145453 (ACS infectious diseases, 2018).

Values joined by “and” are separate entries in the source; they are usually repeats but may differ in a detail not shown here. Equal values may be shown once. “Also recorded” adds a separate entry of the source.

The test system of data set [1] is influenza A/WSN/33 virus. The data set is described as follows: microbe, parasite or virus in culture. In kind it is cell-based, influenza A virus (H1N1). The following applies: for IC50: Influenza A virus, H1N1|WSN, A549, 24 h.
The test system of data set [2] is A/California/04/2009 (H1N1). The data set is described as follows: microbe, parasite or virus in culture. It counts as cell-based, influenza A virus. Particulars: for IC50: Influenza A virus, H1N1, A549.
The subject of data set [3] is A/Puerto Rico/8/1934 (H1N1). The data set is described as follows: microbe, parasite or virus in culture. It counts as cell-based, influenza A virus. The following applies: for IC50: Influenza A virus, H1N1, A549, 24 h.
The subject of data set [4] is A/Brisbane/59/2007-S (oseltamivir sensitive). The data set is described as follows: microbe, parasite or virus in culture. In kind it is cell-based. Particulars: Influenza A virus, H1N1, A549, 24 h.
The subject of data set [5] is A/Panama/2007/1999 (H3N2). The data set is described as follows: microbe, parasite or virus in culture. It counts as cell-based, influenza A virus. The following applies: for IC50: Influenza A virus, H3N2, A549.
For another data set, the system named is A/Wyoming/03/2003 (H3N2). The data set is described as follows: microbe, parasite or virus in culture. The following applies: Influenza A virus, H3N2, A549, 24 h. In kind it is cell-based.
The subject of data set [6] is A/Vietnam/1203/2004 (H5N1). The data set is described as follows: microbe, parasite or virus in culture. In kind it is cell-based, influenza A virus. Particulars: for IC50: Influenza A virus, H5N1, A549.
Another data set relates to B/Yamagata/16/1988. The data set is described as follows: microbe, parasite or virus in culture. In kind it is cell-based. The following applies: Influenza B virus, MDCK.
The next data set deals with B/Brisbane/60/2008. The data set is described as follows: microbe, parasite or virus in culture. In kind it is cell-based. The following applies: Influenza B virus, MDCK, 24 h.
Data set [7] has as its system A/Puerto Rico/8/1934 (H1N1) virus expressing GFP. The data set is described as follows: microbe, parasite or virus in culture. In kind it is cell-based, influenza A virus. Particulars: for IC50: Influenza A virus, H1N1, read-out: PRS IC50.
Data set [8] has as its system A/Vietnam/1203/2004 (H5N1-Halo) GFP virus. The data set is described as follows: microbe, parasite or virus in culture. The following applies: for IC50: Influenza A virus, H5N1, read-out: H5N1 IC50. In kind it is cell-based, influenza A virus.
For the next data set, the system named is PR8-GFP virus. In kind it is cell-based, influenza A virus.
For data set [9], the system named is vesicular stomatitis virus (VSV). In kind it is cell-based.
Data set [10] can be described thus: in vitro. Particulars: human.
Data set [11] in a line: in vitro. The following applies: dog.
Data set [12] concerns purified recombinant wild-type WSN NP protein. It counts as biochemical, influenza A/WSN/33 virus.
Data set [13] concerns NP (A/WSN/33 infected A549 cells). It counts as cell-based, influenza A virus.
Data set [14] shares this test system. It counts as cell-based, influenza A virus. This is another data set of the same source.
The test system of data set [15] is viral mRNA, vRNA and protein expression, A/WSN/33. In kind it is cell-based, influenza A virus.
Data set [16] relates to viral mRNA, vRNA and protein expression, rY40F-WSN virus. It counts as cell-based, influenza A virus.
Data set [17] has as its system influenza A/WSN/33 virus. The data set is described as follows: microbe, parasite or virus in culture. The following applies: MDCK. In kind it is cell-based, influenza A virus (H1N1).
Data set [18] deals with influenza A/WSN/33 virus. In kind it is cell-based.

A word on the IC50: it is the concentration at which inhibition is half-maximal. Regarding `CC(C)(C)c1ccc(C(=O)Nc2ccc(Nc3ccccc3)cc2)cc1` [S119-8, 4-(tert-butyl)-N-(4-(phenylamino)-phenyl)benzamide], the half-maximal inhibitory concentration (IC50) is 1.43 µM with influenza A/WSN/33 virus [1]; 5.32 µM in data set [2]; 6.05 µM in [3]; 6.68 µM in data set [4]; 6.43 µM in [5]; 11.5 µM in the data set with A/Wyoming/03/2003 (H3N2). The 50% inhibitory concentration (IC50) in [6] is 7.94 µM; in the data set with B/Yamagata/16/1988, 2.08 µM; in the data set on B/Brisbane/60/2008 it was 15.2 µM; in [7], 6.05 µM; in [8], 8.42 µM. For the same compound, in the data set with PR8-GFP virus, the combination index was 0.79 and 0.57. Further, the “type of interaction” value with PR8-GFP virus is listed as “synergistic; also recorded: additive to slightly synergistic”. Further, the “inhibition of VSV” value in data set [9] is “did not inhibit; also recorded: does not inhibit”. The CC50 is 40.7 µM in the data set with A549 cells (human), more than 50 µM in “in vitro [10]” (CC50), 66.1 µM in “in vitro [10]” (CC50 (50% cytotoxic concentration)) and more than 50 µM in “in vitro [11]”.

Turning to `CC(C)(C)c1ccc(C(=O)Nc2ccc(Oc3ccccc3)cc2)cc1` [S119-3, 4-(tert-butyl)-N-(4-phenoxyphenyl)benzamide], the half-maximal inhibitory concentration (IC50) in data set [7] is 11.4 µM; in data set [8], 17.4 µM.

Regarding `Cc1onc(-c2ccccc2)c1C(=O)N1CCN(c2ccc([N+](=O)[O-])cc2Cl)CC1` [nucleozin, reference compound], in data set [12], the “effect on NP oligomer ladder / low molecular weight band” value is given as “oligomer ladder becomes a smear” and the “effect on low molecular weight NP band” value is “low molecular weight NP band is lost”. Besides, in data set [13], the “effect on NP oligomer size” value is listed as “shift to smaller oligomers” and the “effect on low molecular weight NP pool” value is reported as “distinct loss”. In data set [14], the NP localization entry is listed as “NP remains exclusively in the cytoplasm” and the “time of appearance of NP aggregates” value is reported as “visible aggregates by 4 h post-infection”. In [15], the “mRNA, vRNA and viral protein expression from PB2, NP and NS segments” value is “complete loss”. Moreover, the “inhibition of transcription and replication of rY40F-WSN virus” value in data set [16] is on record as “efficient inhibition”.

Regarding `CC(C)(C)c1ccc(C(=O)Nc2cccc(NC(=O)c3ccc(C(C)(C)C)cc3)c2)cc1` [S119-6, N,N′-(1,3-phenylene)bis(4-(tert-butyl)benzamide)], the IC50 in data set [7] and in [8] was more than 50 µM throughout.

For the compound `CC(C)(C)c1ccc(C(=O)Nc2ccc(NC(=O)c3ccc(C(C)(C)C)cc3)cc2)cc1` [S119, N,N′-(1,4-Phenylene)bis(4-(tert-butyl)benzamide)], in the data set with influenza A/WSN/33 virus [1], the “reduction in WSN viral titers” value worked out at 4 log and it took 0.02 µM to reach half-maximal inhibition (IC50). In the data set on influenza A/WSN/33 virus [17], this compound showed an IC50 of 0.06 µM. Further, in data set [2], the “reduction in infectious titer” value is 77% and the 50% inhibitory concentration (IC50) is 27.4 µM. Also, in data set [3], the “activity against strain” value is reported as “ineffective” and the 50% inhibitory concentration (IC50) is more than 50 µM. Also, the half-maximal inhibitory concentration (IC50) in [4] was more than 50 µM. Also, in data set [5], the “activity against strain” value is recorded as “ineffective” and the half-inhibitory concentration (IC50) is more than 50 µM. In the data set with A/Wyoming/03/2003 (H3N2), this compound came in with a half-maximal inhibitory concentration (IC50) of more than 50 µM. Besides, in [6], the “activity against strain” value was “ineffective” and the IC50 is more than 50 µM. Besides, the IC50 in the data set with B/Yamagata/16/1988 is more than 50 µM. This compound also yielded an IC50 with B/Brisbane/60/2008 of more than 50 µM. In [7], the “antiviral activity on screened strain” value is “no detectable antiviral activity” and the 50% inhibitory concentration (IC50) is more than 50 µM. Besides, in [8], the “antiviral activity on screened strain” value is “no detectable antiviral activity” and the IC50 was more than 50 µM. In addition, in the data set on influenza A/WSN/33 virus [18], the “effect on viral titer when added at 6 h after infection” value stood at 1 log; the “virus inhibition when added 4 h after infection” value was “significant virus inhibition”; the “virus inhibition when added before infection and up to 2 h after infection” value is listed as “maximally inhibit”. Further, in data set [12], the “effect on NP oligomer ladder / low molecular weight band” value is “low molecular weight band is completely lost” and the “effect on low molecular weight NP band” value is recorded as “low molecular weight NP band is lost”. In data set [13], the “effect on NP oligomer size” value is on record as “shift to smaller oligomers” and the “effect on low molecular weight NP pool” value was “distinct loss”. In data set [14], the NP localization result is given as “NP translocation to the nucleus was delayed” and the “time of appearance of NP aggregates” value was “not until the 24 h post-infection time point”. Besides, in data set [15], the NP protein levels entry is “moderately reduced”, the NS1 protein expression entry is on record as “unaffected”, the “mRNA expression from the NP segment” value is reported as “severely reduced” and the “mRNA expression from the NS segment” value was “slightly reduced”. Besides, in [15], the “mRNA expression from the PB2 segment” value is reported as “reduced to undetectable levels” and the “vRNA from any segment” value is “could not be detected”. Also, the “inhibition of transcription and replication of rY40F-WSN virus” value in data set [16] is given as “completely resistant”. Further, in the data set on A549 cells (A549 cells, concentrations as high as 500 μM), the “Cytotoxicity” value was “very little toxicity”.

As to `CC(C)(C)c1ccc(NC(=O)c2ccc(C(C)(C)C)cc2)cc1` [S119-2, 4-(tert-butyl)-N-(4-(tert-butyl)phenyl)benzamide], the IC50 turned out to be 13.9 µM in data set [7] and 44.5 µM in data set [8].
